What was measured:
[1] = In Vitro Assay: In general, Trex HEK293 cells were stably transfected with an inducible expression vector containing the full-length cDNA coding for the desired human sodium channel α-subunit and with an expression vector containing full length cDNA coding for the β1-subunit. Sodium channel expressing cell lines were induced with tetracycline (1 μg/mL) and plated on 384-well PDL-coated plates at …
[2] = as above; remark: listed apart in the source

Compound	IC50 [1] [µM]	IC50 [2] [µM]
C[C@@H](c1c(F)ccc(F)c1CNc1cc(F)c(S(=O)(=O)Nc2cscn2)c(F)c1)N1C2CCC1CC2 (single isomer, unassigned)	> 30	> 30
C[C@H](c1c(F)ccc(F)c1CNc1cc(F)c(S(=O)(=O)Nc2cscn2)c(F)c1)N1C2CCC1CC2 (single isomer, unassigned)	> 30	> 30
